Results from the supplement of paper PMC10307832.

How the values were obtained:
Assay in all cases: relative viability (nuclei count vs DMSO), 5 days (fraction); higher = more cells survive
Mirin + Palbociclib = compound: N=C1NC(=O)/C(=C/c2ccc(O)cc2)S1 [Mirin] + CC(=O)c1c(C)c2cnc(Nc3ccc(N4CCNCC4)cn3)nc2n(C2CCCC2)c1=O [Palbociclib] (partner 0.5 µM)
In short: (§1)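 One day after seeding in 1536-well plates, lung cancer cell lines were dosed by pin tool. Dosing was either single-drug or a fixed anchor-drug dose plus five library-drug doses (not always all listed) in √10 steps. After 5 days, nuclei were stained in one fix-and-stain step and counted on 4× images, and relative viability is the nuclei count of treated wells over that of vehicle wells, given as the median of duplicate plates.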

[1] = compound: CCC1=CN=CN=C1N2CCN(CC2)CC3=NC4=C(N3)C=C(C=C4)C(F)(F)F + NC(=O)Nc1cc(-c2cccc(F)c2)sc1C(=O)N[C@H]1CCCNC1 [AZD7762] (partner 0.2 µM)
In short: as §1

[2] = compound: CCC1=CN=CN=C1N2CCN(CC2)CC3=NC4=C(N3)C=C(C=C4)C(F)(F)F + CC1(C)CCC(c2ccc(Cl)cc2)=C(CN2CCN(c3ccc(C(=O)NS(=O)(=O)c4ccc(N[C@H](CCN5CCOCC5)CSc5ccccc5)c(S(=O)(=O)C(F)(F)F)c4)cc3)CC2)C1 [Navitoclax] (partner 0.5 µM)
In short: as §1

[3] = compound: CCn1c(-c2nonc2N)nc2cnc(Oc3cccc(NC(=O)c4ccc(OCCN5CCOCC5)cc4)c3)cc21 + CC(=O)c1c(C)c2cnc(Nc3ccc(N4CCNCC4)cn3)nc2n(C2CCCC2)c1=O [Palbociclib] (partner 0.5 µM)
In short: as §1

| Cell Line | relative viability (Mirin + Palbociclib; first compound 0.25 µM) | relative viability (Mirin + Palbociclib; first compound 0.7906 µM) | relative viability (Mirin + Palbociclib; first compound 2.5 µM) | relative viability (Mirin + Palbociclib; first compound 7.906 µM) | relative viability (Mirin + Palbociclib; first compound 25 µM) | relative viability ([1]; first compound 0.04 µM) | relative viability ([1]; first compound 0.1265 µM) | relative viability ([1]; first compound 0.4 µM) | relative viability ([1]; first compound 1.265 µM) | relative viability ([1]; first compound 4 µM) | relative viability ([2]; first compound 0.04 µM) | relative viability ([2]; first compound 0.1265 µM) | relative viability ([2]; first compound 0.4 µM) | relative viability ([2]; first compound 1.265 µM) | relative viability ([2]; first compound 4 µM) | relative viability ([3]; first compound 0.04 µM) | relative viability ([3]; first compound 0.1265 µM) | relative viability ([3]; first compound 0.4 µM) | relative viability ([3]; first compound 1.265 µM) | relative viability ([3]; first compound 4 µM) |
| --- | --- | --- | --- | --- | --- | --- | --- | --- | --- | --- | --- | --- | --- | --- | --- | --- | --- | --- | --- | --- |
| PC-14 | 0.528 | 0.558 | 0.508 | 0.512 | 0.522 | 0.317 | 0.337 | 0.338 | 0.387 | 0.395 | 1.02 | 1.03 | 1.01 | 0.984 | 0.982 | 0.578 | 0.432 | 0.466 | 0.486 | 0.414 |
| NCI-H2087 | 0.227 | 0.297 | 0.249 | 0.133 | 0.318 | 1.34 | 1.26 | 1.43 | 1.17 | 1.21 | 1.03 | 0.982 | 0.914 | 0.871 | 0.723 | 0.362 | 0.218 | 0.336 | 0.2 | 0.228 |
| NCI-H2085 | 0.458 | 0.47 | 0.495 | 0.562 | 0.486 | 0.75 | 0.941 | 0.987 | 0.791 | 1.03 | 1.11 | 1.02 | 1.21 | 1.18 | 0.911 | 0.514 | 0.44 | 0.402 | 0.359 | 0.39 |
| HCC-15 | 0.739 | 0.712 | 0.677 | 0.674 | 0.737 | 1.3 | 1.11 | 1.1 | 1.32 | 1.32 | 0.702 | 0.67 | 0.757 | 0.694 | 0.71 | 0.758 | 0.665 | 0.673 | 0.596 | 0.7 |
| H3255 | 0.308 | 0.309 | 0.298 | 0.323 | 0.328 | 0.86 | 0.852 | 0.824 | 0.931 | 0.874 | 0.489 | 0.469 | 0.507 | 0.49 | 0.529 | 0.293 | 0.311 | 0.318 | 0.296 | 0.305 |
| NCI-H1792 | 0.561 | 0.714 | 0.664 |  | 0.608 | 0.666 | 0.66 | 0.527 |  | 0.685 | 0.323 | 0.572 | 0.605 | 0.697 | 0.554 | 0.694 | 0.583 |  | 0.542 | 0.582 |
| NCI-H647 | 0.395 | 0.4 | 0.381 | 0.374 | 0.345 | 0.438 | 0.476 | 0.457 | 0.471 | 0.554 | 1.21 | 0.968 |  |  | 1.04 | 0.494 | 0.297 | 0.317 | 0.235 | 0.297 |
